Data on five compounds can be found in PMC7663372, “Brain Distribution of Dual ABCB1/ABCG2 Substrates Is Unaltered in a Beta-Amyloidosis Mouse Model” (International Journal of Molecular Sciences, 2020).

Read-outs that look alike come from different tables or passages of the source.

The subject of one data set is ABCB1 at the BBB. Conditions: cited from earlier work.
For data set [1], the target named is T1, ABCG2 at the mouse BBB (Mus musculus, UniProt Q7TMS5).
T1 sequence (Q7TMS5 1-657): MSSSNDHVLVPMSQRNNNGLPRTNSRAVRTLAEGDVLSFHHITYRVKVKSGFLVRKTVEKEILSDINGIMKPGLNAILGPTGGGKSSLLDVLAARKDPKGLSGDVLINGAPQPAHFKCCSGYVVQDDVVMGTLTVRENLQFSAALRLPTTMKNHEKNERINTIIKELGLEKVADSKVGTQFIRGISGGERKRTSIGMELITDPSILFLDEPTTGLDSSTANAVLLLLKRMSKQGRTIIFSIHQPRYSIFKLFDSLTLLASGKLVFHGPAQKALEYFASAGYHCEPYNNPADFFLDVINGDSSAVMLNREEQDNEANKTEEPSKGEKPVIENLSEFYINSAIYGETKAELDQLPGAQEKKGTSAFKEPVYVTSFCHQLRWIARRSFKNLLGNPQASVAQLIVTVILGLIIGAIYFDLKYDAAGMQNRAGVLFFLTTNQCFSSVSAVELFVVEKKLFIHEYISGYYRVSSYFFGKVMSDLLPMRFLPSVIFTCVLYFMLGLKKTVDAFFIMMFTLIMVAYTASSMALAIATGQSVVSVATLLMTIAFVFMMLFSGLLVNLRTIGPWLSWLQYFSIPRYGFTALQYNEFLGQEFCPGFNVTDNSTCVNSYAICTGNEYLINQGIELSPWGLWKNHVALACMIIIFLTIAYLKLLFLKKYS
More on the design: Two PET imaging approaches for assessing the activity of ABCG2 at the mouse BBB were performed; from tissue; host or cells: blood-brain barrier (brain capillary endothelium) of living female APP/PS1-21 and wild-type C57BL/6J mice; method as in PMID 22828996. As to conditions: Abcb1a/b(-/-) mice pretreated with 15 mg/kg Ko143; cited from earlier work.

For data set [2], the target named is T1, ABCG2 at the mouse BBB. As to conditions: for percentage increase in Kp,brain following ABCG2 inhibition: Ko143 5 mg/kg vs vehicle, tariquidar 12 mg/kg, hippocampus, cortex; for change in Kp,brain after partial ABCG2 inhibition: Ko143 5 mg/kg.
Data set [3] has as its system ABCB1. As to conditions: cited from earlier work.
Data set [4] has as its system ABCB1. Conditions: cited from earlier work. The source holds these as a separate data set.
In data set [5] the test system is ABCB1. On the set-up: method as in PMID 26940368. Conditions: read-out: IC50 for in vitro inhibition of its own transport by ABCB1; cited from earlier work.
The next data set relates to ABCG2. On the set-up: method as in PMID 26940368. As to conditions: read-out: IC50 for in vitro inhibition of its own transport by ABCG2; cited from earlier work.

Take `CNC(=O)C(CCN1CCC(O)(c2ccc(Cl)cc2)CC1)(c1ccccc1)c1ccccc1` [[^11C]N-desmethyl-loperamide]: the “increase in brain distribution relative to wild-type mice” value in the data set on ABCB1 at the BBB (heterozygous Abcb1a/b(+/-) knockout mice) was 1.1 fold; in the data set with ABCB1 at the BBB (homozygous Abcb1a/b(-/-) knockout mice), 2.8 fold.
In the case of `COc1cc2c(cc1OC)CN(CCc1ccc(NC(=O)c3cc(OC)c(OC)cc3NC(=O)c3cnc4ccccc4c3)cc1)CC2` [[^11C]tariquidar], the “maximum brain uptake, Kp,brain” value at ABCG2 at the mouse BBB [1] is “approximately 15”. Also, the “percentage increase in Kp,brain following ABCG2 inhibition” value is on record as 36–52% at ABCG2 at the mouse BBB [2] (APP/PS1-21 mice, cerebellum) and 26–41% at ABCG2 at the mouse BBB [2] (wild-type mice, cerebellum). For the same compound, the “change in Kp,brain after partial ABCG2 inhibition” value is given as “significantly increased” at ABCG2 at the mouse BBB [2] (cerebellum, APP/PS1-21 mice); “not in wild-type mice” on ABCG2 at the mouse BBB [2] (cerebellum, wild-type mice); “significantly higher” on ABCG2 at the mouse BBB [2] (hippocampus and cortex, both mouse strains).
As for `CN(C)C(=O)C(CCN1CCC(O)(c2ccc(Cl)cc2)CC1)(c1ccccc1)c1ccccc1` [loperamide], the “change in brain distribution in triple transgenic AD mice (APPswe, PS-1M146V, tauP301L)” value in the data set with ABCB1 [3] is recorded as “no changes”.
`Cc1nc2n(c(=O)c1CCN1CCC(c3noc4cc(F)ccc34)CC1)CCCC2O` (stereo not drawn) [paliperidone]: the “difference in Kp,uu,brain between tg-APPArcSwe and age-matched control mice” value in the data set on ABCB1 [4] is given as “no differences”.
On to `COc1cc2c(cc1OC)CN(CCc1ccc(NC(=O)c3cc(OC)c(OC)cc3NC(=O)c3cnc4ccccc4c3)cc1)CC2` [tariquidar], for which the IC50 was 17.1 nM in the data set with ABCB1 [5] and 310 nM with ABCG2.
